Results from patent EP0647632A1, “NOVEL BENZ[…]” (YAMANOUCHI PHARMACEUTICAL CO. LTD., priority 1992, dated 1994).

Key:
[1] = test system: Gastric Acid Secretion Stimulated by Pentagastrin; test: Inhibition of pentagastrin-stimulated gastric acid secretion in anesthetized rats with perfused stomach, intravenous administration; format: in vivo, SD species rats; details: SD rats, urethane anesthesia, pentagastrin 15 µg/kg/hour i.v., test drug intravenous, dose 0.1 µmol/kg
Description: (i) Method of Measurement: A cannula was inserted into a trachea of rats anesthetized with urethane (1.25 g/kg intraperitoneal administration) and abdomen was incised to expose stomach and duodenum. After ligating the cardiac portion, a polyethylene cannula was set in the forestomach portion. Further, a small incision was given to the duodenum, and a polyethylene cannula was inserted from the incised portion to a direction of the stomach inside. In order to fix the cannula, the pylorus portion was ligated. A physiological saline (adjusted to pH 7.0) was perfused from forestomach portion to the pylorus portion at a rate of 3 ml/minute. The gastric acid secretion was measured by continuously titrating the perfusate by means of a pH-stat (AUT-201, produced by Toa Electronics Ltd.). The continuous titration was performed by titrating with a 25 mM sodium hydroxide solution using a titration end point of pH 7.0. The results were determined as a gastric acid analysis at 10 minutes intervals (µEq/10 minutes). Then, pentagastrin was intravenously administered (15 µg/kg/hour). After injection of pentagastrin, the acid secretion was increased, and 60 minutes after the injection, the acid secretion reached to its maximum value and stabilized. Thereafter, a test drug was intravenously administered, and the gastric acid secretion was measured. From the gastric acid secretion amount after the test drug injection, a gastric acid secretion inhibitory ratio was calculated by taking the maximum value after the pentagastrin injection as 100%. In this test, two species of rats, i.e., Wistar species rats and SD species rats, were used as test animals, but the embodiments obtained by using the SD species rats are described below. The compounds of the present invention show from 9 to 89% gastric acid secretion inhibitory effects by the administration at a dose of 0.1 µmol/kg. The embodiments are shown below.

[2] = target: T1, CCK-B receptor (Rattus norvegicus, UniProt P30553); test: Binding activity to CCK-B receptor: displacement of [125I]BH.CCK-8 from rat whole brain membrane sample; set-up: species or system SD rats; details: rat brain membranes, [125I]BH.CCK-8, 25°C, 120 minutes; read-out: CCK-B Binding IC₅₀
T1 construct: freezed at -80°C for storage as a membrane sample; from tissue; host or cells: SD rat whole brain membrane preparation
T1 sequence (P30553 1-452): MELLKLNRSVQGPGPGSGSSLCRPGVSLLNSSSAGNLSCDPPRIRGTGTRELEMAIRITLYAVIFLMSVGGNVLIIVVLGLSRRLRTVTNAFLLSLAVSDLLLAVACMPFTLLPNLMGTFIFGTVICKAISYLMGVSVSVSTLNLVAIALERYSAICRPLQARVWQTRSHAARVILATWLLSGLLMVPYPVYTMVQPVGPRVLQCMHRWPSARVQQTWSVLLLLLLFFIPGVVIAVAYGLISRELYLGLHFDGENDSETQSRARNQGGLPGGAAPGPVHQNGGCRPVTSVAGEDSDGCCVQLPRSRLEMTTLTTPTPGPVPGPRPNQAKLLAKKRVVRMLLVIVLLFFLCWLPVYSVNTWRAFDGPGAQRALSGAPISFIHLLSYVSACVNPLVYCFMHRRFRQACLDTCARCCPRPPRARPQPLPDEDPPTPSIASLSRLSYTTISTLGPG
Method: About 100 conscious SD rats were sacrificed by decapitation, and immediately thereafter the whole brain was extracted. The whole brain was homogenized using a Teflon-glass homogenizer in a 0.32M sucrose aqueous solution in a volume of 10 times the whole brain. The resulting homogenate was centrifuged in a cooled centrifugator at 900 × g for 10 minutes, and the supernatant was further centrifuged at 11,500 × g for 15 minutes. The resulting sediment was suspended in a 0.08% Triton X-100 and a 50 mM Tris-HCl buffering solution (pH 7.4). After allowing the suspension to stand for 30 minutes, the suspension was again centrifuged at 11,500 × g for 15 minutes, and the sediment was washed twice with each of 5 mM and 50 mM Tris-HCl buffers by centrifuging operations. The resulting sediment was suspended in a 50 mM Tris-HCl buffer, and freezed at -80°C for storage as a membrane sample.
After thawing the membrane sample at room temperature, it was diluted with a 10 mM HEPES buffer (130 mM NaCl, 5 mM MgCl₂·1mM EGTA, 0.25 mg/ml bacitracin, pH 6.5) and, after incubating at 25°C for 120 minutes in the presence of [¹²⁵I]BH.CCK-8, B/F separation was performed by suction filtration. The non-specific binding was determined in the presence of 1 µM of CCK-8. The amount of the labelled ligand bonded to the receptor was measured by a γ-counter. A Ki (CCK-B) value was determined from a displacement curve of the test compound by taking the maximum binding amount of the labelled ligand to the receptor as 100%.

[3] = test system: Gastric Acid Secretion Stimulated by Pentagastrin; test: Inhibition of pentagastrin-stimulated gastric acid secretion in Heidenhain pouch dogs, oral administration; format: in vivo, beagle dogs; details: pentagastrin 8 µg/kg/hr infusion, test drug oral
Description: (ii) Method of Measurement: Male beagle dogs (7 to 12 kg) fasted overnight was used and subjected to peritoneotomy under GOF anesthesia. After amputating the corpus ventriculi portion parallel to the curvatura ventriculi major, a metal pouch was retained in the suture-closed epigastric region to prepare Heidenhain pouch dogs. The dogs under healthy conditions after two months from the operation were presented to the experiments. Each of the pouch dogs was used at one week intervals.
Pentagastrin was continuously infused (8 µg/kg/hr) into 3 to 5 Heidenhain pouch dogs fasted for 18 hours, and the gastric juice naturally dropped from the pouch was collected at a 15 minute interval. The acid concentration in the gastric juice was calculated from the amount of a 0.05N NaOH required for titrating up to pH of 7.0 using an automatic titration apparatus (Comtite-7, produced by Hiranuma Sangyo), and the product with the amount of the gastric juice was referred to as an acid secretion amount.
Three hours after commencement of the continuous infusion of pentagastrin, a test drug was orally administered, and an inhibitory ratio to the gastric acid secretion at 15 minute intervals was determined to evaluate the effects of the drug.

| Compound | Gastric Acid Secretion Inhibitory Ratio/Dose [1] | IC50 [2] | Gastric Acid Secretion Inhibitory Ratio/Dose ([3]; dose 10 µmol/kg) | Gastric Acid Secretion Inhibitory Ratio/Dose ([3]; dose 1 µmol/kg) |
| --- | --- | --- | --- | --- |
| Cc1ccc(C(=O)CN2C(=O)C(NC(=O)Nc3cccc(N(C)C)c3)N=C(c3ccccc3)c3ccccc32)cc1 (single isomer, unassigned; (+)) [Example 21, (+)-1-[2,3-Dihydro-1-(4'-methylphenacyl)-2-oxo-5-phenyl-1H-1,4-benzodiazepin-3-yl]-3-(3-dimethylaminophenyl)urea] | 74% (0.1 µmol/kg) | 0.16 nM | 90% (10 µmol/kg) | – |
| Cc1ccccc1C(=O)CN1C(=O)[C@H](NC(=O)Nc2cccc(N(C)C)c2)N=C(c2ccccc2)c2ccccc21 [Example 3, (R)-1-[2,3-dihydro-1-(2'-methylphenacyl)-2-oxo-5-phenyl-1H-1,4-benzodiazepin-3-yl]-3-(3-dimethylaminophenyl)urea] | 63% (0.1 µmol/kg) | 0.17 nM | 57% (10 µmol/kg) | – |
| Cc1ccc(C(=O)CN2C(=O)C(NC(=O)Nc3cccc(N(C)C)c3)N=C(c3ccccn3)c3ccccc32)cc1 (stereo not drawn) [Example 35, 1-[2,3-dihydro-1-(4'-methylphenacyl)-2-oxo-5-(2-pyridyl)-1H-1,4-benzodiazepin-3-yl]-3-(3-dimethylaminophenyl)urea] | 76% (0.1 µmol/kg) | 2.14 nM | – | 83% (1 µmol/kg) |
